Earlier results on two compounds are cited in patent US10137245B2 (priority 2010, dated 2018).

The test system of series [1] is healthy human volunteers. The settings on record: intrathecal morphine group; extremely low plasma levels; Bailey and colleagues.
In series [2] the test system is human surgical patients. The settings on record: propofol concentration, Shafer et al 1988.

As to `CN1CC[C@]23c4c5ccc(O)c4O[C@H]2[C@@H](O)C=C[C@H]3[C@H]1C5` [morphine], the “Effect on HRV” value in series [1] is given as “substantial reduction”.

`CC(C)c1cccc(C(C)C)c1O` [propofol, 2,6-diisopropylphenol]: in series [2], the EC50 for awakening was 1.07 ± 0.13 µg/mL and the EC50 for orientation was 0.95 ± 0.19 µg/mL.
